# Assay results taken from US20250171430A1, “PYRAZOLYL COMPOUNDS AS KV7 CHANNEL ACTIVATORS” (Biohaven Therapeutics Ltd., priority 2022, published 2025).
# Molecular target: T1, Kv7.2/7.3 (Homo sapiens, UniProt O43525+O43526)
# T1 construct: Kv7.2 tetracycline-induced, Kv7.3 constitutive
# Test: Kv7.2/7.3 Activation Assay (Thallium Flux Assay)
# Type: cell-based
# Details: hKV7.2/7.3 cell line; test compound at single concentration of 10 μM; fluorescence at 90 sec normalized to positive control (retigabine, 30 μM)
# Description: The Thallium Flux Assay is used as a surrogate indicator of potassium channel activity.
# The experimental protocol was adapted from the FluxOR™ II Green Potassium Ion Channel Assay User Guide (Pub. No. MAN0016084, Invitrogen). Conditions were optimized for the Kv7.2/7.3 cell line.
# Cell Line: The hKV7.2/7.3 cell line was obtained from Chantest (cat. #CT6147).
# Cell Culture: Kv7.2/7.3 cells were maintained in a media containing DMEM/F12; 50/50 (Fisher 11-330), 10% Fetal Bovine Serum (FBS) (Fisher 26-140), 100 units/mL Penicillin-Streptomycin (Fisher 15-140), 0.005 mg/ml Blasticidin (InvivoGen ant-bl-1), 0.5 mg/mL Geneticin (InvivoGen ant-gn-5), and 0.1 mg/mL Zeocin (Fisher R25001). One day prior to experimentation, cells were plated in 96 well clear bottom plates (Corning cat. #353219) in a media without Blasticidin, Geneticin, or Zeocin. In this cell line Kv7.3 channel expression is controlled by a constitutive promoter. Kv7.2 channel expression was induced by adding tetracycline (Sigma T7660) at a final concentration of 10 ng/mL overnight in a cell culture incubator at 37° C. and 5% CO2. On the day of assay, the cell culture medium in the 96-well plates was replaced by assay buffer containing the thallium-sensitive fluorescent sensor, FluxOR II Green prepared according to manufacturer's instructions. The 96-well plates were then incubated for 1 h at 37° C. Following the incubation, the FluxOR II Green-containing solution was replaced with extracellular solution.
# Test Compound Plates: The test compound is diluted in a mixture of 0.1% DMSO/extracellular solution at a single concentration of 10 μM. Dilutions were made on a Biomek NXP (BECKMAN COULTER). Extracellular solution contained (in mM: 145 NaCl, 4 KCl, 2 CaCl2), 1 MgCl2, 10 HEPES, and 10 Glucose, pH 7.4).
# Measurement and data analysis: Thallium-flux-mediated changes in intracellular fluorescence were made using a plate reader (Enspire, Perkin Elmer) set with an excitation wavelength of 475 nm and an emission wavelength of 530 nm. After a 15 sec baseline measurement, the stimulus buffer containing thallium and potassium was added to the 96-well plate containing FluxOR II Green-loaded cells and test compounds. Fluorescence values at 90 sec were normalized to the positive control (retigabine, 30 μM) and test compound activities were assigned categories according to the formula: “No Activity <0.15, “+” Moderate Activity 0.15-0.7, and “++” High Activity >0.7.
row,SMILES,Kv7.2/7.3 Activity
1,"CC(C)c1c(NC(=O)CC2(C(F)(F)F)CC2)nn(C)c1-c1ccc(OC(F)(F)F)cc1 [Compound 26, N-(4-isopropyl-1-methyl-5-(4-(trifluoromethoxy)phenyl)-1H-pyrazol-3-yl)-2-(1-(trifluoromethyl)cyclopropyl)acetamide]",++ (“++” High Activity ≥ 0.7)
2,"Cn1nc(NC(=O)CC(C)(C)C)c(C2CCC2)c1-c1ccc(C(C)(C)O)cc1 [Compound 29, N-(4-cyclobutyl-5-(4-(2-hydroxypropan-2-yl)phenyl)-1-methyl-1H-pyrazol-3-yl)-3,3-dimethylbutanamide]",− (“−” No Activity < 0.15)
3,"Cn1nc(NC(=O)C[C@@H]2CC(F)(F)C2(F)F)c(C2CCC2)c1-c1ccc(OC(F)(F)F)cc1 [Compound 30, (R)-N-(4-cyclobutyl-1-methyl-5-(4-(trifluoromethoxy)phenyl)-1H-pyrazol-3-yl)-2-(2,2,3,3-tetrafluorocyclobutyl)acetamide]",++ (“++” High Activity ≥ 0.7)
4,"Cn1nc(NC(=O)C[C@@H]2CC(F)(F)C2(F)F)c(C2CCC2)c1C(F)(F)c1ccccc1 [Compound 32, (R)-N-(4-cyclobutyl-5-(difluoro(phenyl)methyl)-1-methyl-1H-pyrazol-3-yl)-2-(2,2,3,3-tetrafluorocyclobutyl)acetamide]",++ (“++” High Activity ≥ 0.7)
5,"Cn1nc(NC(=O)CC(C)(C)C2CC2)c(C2CC(F)(F)C2)c1-c1ccc(OC(F)(F)F)cc1 [Compound 43, 3-cyclopropyl-N-(4-(3,3-difluorocyclobutyl)-1-methyl-5-(4-(trifluoromethoxy)phenyl)-1H-pyrazol-3-yl)-3-methylbutanamide]",+ (“+” Moderate Activity 0.15-0.7)
6,"N#CCn1nc(NC(=O)C[C@@H]2CC(F)(F)C2(F)F)c(C2CCC2)c1-c1ccc(F)cc1 [Compound 45, (R)-N-(1-(cyanomethyl)-4-cyclobutyl-5-(4-fluorophenyl)-1H-pyrazol-3-yl)-2-(2,2,3,3-tetrafluorocyclobutyl)acetamide]",++ (“++” High Activity ≥ 0.7)
7,"Cn1nc(NC(=O)CC(C)(C)C(F)(F)F)c(C2CCC2)c1-c1cnc(C(F)(F)F)s1 [Compound 49, N-(4-cyclobutyl-1-methyl-5-(2-(trifluoromethyl)thiazol-5-yl)-1H-pyrazol-3-yl)-4,4,4-trifluoro-3,3-dimethylbutanamide]",+ (“+” Moderate Activity 0.15-0.7)
8,"Cn1nc(NC(=O)CC2(C(F)(F)F)CC2)c(C2CCC2)c1-c1cnc(C(F)(F)F)s1 [Compound 50, N-(4-cyclobutyl-1-methyl-5-(2-(trifluoromethyl)thiazol-5-yl)-1H-pyrazol-3-yl)-2-(1-(trifluoromethyl)cyclopropyl)acetamide]",− (“−” No Activity < 0.15)
9,"Cn1nc(NC(=O)C2C(C)(C)C2(C)C)c(C2CCC2)c1-c1ccc(OC(F)(F)F)cc1 [Compound 51, N-(4-cyclobutyl-1-methyl-5-(4-(trifluoromethoxy)phenyl)-1H-pyrazol-3-yl)-2,2,3,3-tetramethylcyclopropane-1-carboxamide]",+ (“+” Moderate Activity 0.15-0.7)
10,"Cn1nc(NC(=O)[C@H]2C(C)(C)C2(F)F)c(C2CCC2)c1-c1ccc(OC(F)(F)F)cc1 [Compound 52, (R)-N-(4-cyclobutyl-1-methyl-5-(4-(trifluoromethoxy)phenyl)-1H-pyrazol-3-yl)-2,2-difluoro-3,3-dimethylcyclopropane-1-carboxamide]",+ (“+” Moderate Activity 0.15-0.7)

# The remaining lines, values ahead:
row,Kv7.2/7.3 Activity,SMILES
1,++ (“++” High Activity ≥ 0.7),"Cn1nc(NC(=O)CC2(C(F)(F)F)CC2)c(C2CCC2)c1-c1ccc(OC(F)(F)F)cc1 [Compound 31, N-(4-cyclobutyl-1-methyl-5-(4-(trifluoromethoxy)phenyl)-1H-pyrazol-3-yl)-2-(1-(trifluoromethyl)cyclopropyl)acetamide]"
2,++ (“++” High Activity ≥ 0.7),"Cn1nc(NC(=O)C[C@H]2CC(F)(F)C2(F)F)c(C2CCC2)c1-c1ccc(OC(F)(F)F)cc1 [Compound 33, (S)-N-(4-cyclobutyl-1-methyl-5-(4-(trifluoromethoxy)phenyl)-1H-pyrazol-3-yl)-2-(2,2,3,3-tetrafluorocyclobutyl)acetamide]"
3,+ (“+” Moderate Activity 0.15-0.7),"Cn1nc(NC(=O)C[C@H]2CC(F)(F)C2(F)F)c(C2CCC2)c1-c1ccc(C(C)(C)O)cc1 [Compound 34, (S)-N-(4-cyclobutyl-5-(4-(2-hydroxypropan-2-yl)phenyl)-1-methyl-1H-pyrazol-3-yl)-2-(2,2,3,3-tetrafluorocyclobutyl)acetamide]"
4,+ (“+” Moderate Activity 0.15-0.7),"Cn1nc(NC(=O)C[C@H]2CC(F)(F)C2(F)F)c(C2CCC2)c1-c1ccc(C(F)(F)F)cn1 [Compound 35, (S)-N-(4-cyclobutyl-1-methyl-5-(5-(trifluoromethyl)pyridin-2-yl)-1H-pyrazol-3-yl)-2-(2,2,3,3-tetrafluorocyclobutyl)acetamide]"
5,− (“−” No Activity < 0.15),"Cn1nc(NC(=O)CC2(C(F)(F)F)CC2)c(C2CCC2)c1-c1ccc(C(F)(F)F)cn1 [Compound 36, N-(4-cyclobutyl-1-methyl-5-(5-(trifluoromethyl)pyridin-2-yl)-1H-pyrazol-3-yl)-2-(1-(trifluoromethyl)cyclopropyl)acetamide]"
6,++ (“++” High Activity ≥ 0.7),"Cn1nc(NC(=O)C[C@@H]2CC(F)(F)C2(F)F)c(CC(F)(F)F)c1-c1ccccc1 [Compound 37, (R)-N-(1-methyl-5-phenyl-4-(2,2,2-trifluoroethyl)-1H-pyrazol-3-yl)-2-(2,2,3,3-tetrafluorocyclobutyl)acetamide]"
7,++ (“++” High Activity ≥ 0.7),"Cn1nc(NC(=O)C[C@H]2CC(F)(F)C2(F)F)c(CC(F)(F)F)c1-c1ccccc1 [Compound 38, (S)-N-(1-methyl-5-phenyl-4-(2,2,2-trifluoroethyl)-1H-pyrazol-3-yl)-2-(2,2,3,3-tetrafluorocyclobutyl)acetamide]"
8,++ (“++” High Activity ≥ 0.7),"Cn1nc(NC(=O)C[C@H]2CC(F)(F)C2(F)F)c(C2CCC2)c1C(F)(F)c1ccccc1 [Compound 39, (S)-N-(4-cyclobutyl-5-(difluoro(phenyl)methyl)-1-methyl-1H-pyrazol-3-yl)-2-(2,2,3,3-tetrafluorocyclobutyl)acetamide]"
9,++ (“++” High Activity ≥ 0.7),"Cn1nc(NC(=O)C[C@H]2CC(F)(F)C2(F)F)c(C2CC(F)(F)C2)c1-c1ccc(OC(F)(F)F)cc1 [Compound 40, (S)-N-(4-(3,3-difluorocyclobutyl)-1-methyl-5-(4-(trifluoromethoxy)phenyl)-1H-pyrazol-3-yl)-2-(2,2,3,3-tetrafluorocyclobutyl)acetamide]"
10,+ (“+” Moderate Activity 0.15-0.7),"Cn1nc(NC(=O)CC2(C(F)(F)F)CC2)c(C2CC(F)(F)C2)c1-c1ccc(OC(F)(F)F)cc1 [Compound 42, N-(4-(3,3-difluorocyclobutyl)-1-methyl-5-(4-(trifluoromethoxy)phenyl)-1H-pyrazol-3-yl)-2-(1-(trifluoromethyl)cyclopropyl)acetamide]"
11,++ (“++” High Activity ≥ 0.7),"Cn1nc(NC(=O)C[C@@H]2CC(F)(F)C2(F)F)c(C2CCC2)c1C(=O)c1ccccc1 [Compound 44, (R)-N-(5-benzoyl-4-cyclobutyl-1-methyl-1H-pyrazol-3-yl)-2-(2,2,3,3-tetrafluorocyclobutyl)acetamide]"
12,+ (“+” Moderate Activity 0.15-0.7),"N#CCn1nc(NC(=O)C[C@H]2CC(F)(F)C2(F)F)c(C2CCC2)c1-c1ccc(F)cc1 [Compound 46, (S)-N-(1-(cyanomethyl)-4-cyclobutyl-5-(4-fluorophenyl)-1H-pyrazol-3-yl)-2-(2,2,3,3-tetrafluorocyclobutyl)acetamide]"
13,+ (“+” Moderate Activity 0.15-0.7),"Cn1nc(NC(=O)C[C@@H]2CC(F)(F)C2(F)F)c(C2CCC2)c1-c1cccc(C(C)(C)O)c1 [Compound 47, (R)-N-(4-cyclobutyl-5-(3-(2-hydroxypropan-2-yl)phenyl)-1-methyl-1H-pyrazol-3-yl)-2-(2,2,3,3-tetrafluorocyclobutyl)acetamide]"
14,+ (“+” Moderate Activity 0.15-0.7),"Cn1nc(NC(=O)C[C@H]2CC(F)(F)C2(F)F)c(C2CCC2)c1-c1cccc(C(C)(C)O)c1 [Compound 48, (S)-N-(4-cyclobutyl-5-(3-(2-hydroxypropan-2-yl)phenyl)-1-methyl-1H-pyrazol-3-yl)-2-(2,2,3,3-tetrafluorocyclobutyl)acetamide]"
